{"source": "the supplement of paper PMC10307832", "test_in_all_cases": "relative viability (nuclei count vs DMSO), 5 days (fraction); higher = more cells survive", "key": {"[1]": {"system": "ABC-1", "in_short": "(§1)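 Relative viability is defined as nuclei in treated wells over nuclei in vehicle wells. Duplicate plates were run and medians reported. Lung cancer cell lines in 1536-well plates were dosed by pin tool one day after seeding, with one drug or with a fixed anchor-drug dose plus five library-drug doses (not always all listed) in √10 steps, and nuclei were counted after 5 days.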"}, "[2]": {"system": "CAL-12T", "in_short": "as §1"}, "[3]": {"system": "HCC-366", "in_short": "as §1"}, "[4]": {"system": "HCC-78", "in_short": "as §1"}, "[5]": {"system": "LC-2-ad", "in_short": "as §1"}, "[6]": {"system": "LOU-NH91", "in_short": "as §1"}, "[7]": {"system": "LU99A", "in_short": "as §1"}, "[8]": {"system": "NCI-H1395", "in_short": "as §1"}, "[9]": {"system": "NCI-H1651", "in_short": "as §1"}, "[10]": {"system": "NCI-H1734", "in_short": "as §1"}, "[11]": {"system": "NCI-H1755", "in_short": "as §1"}, "[12]": {"system": "NCI-H1793", "in_short": "as §1"}, "[13]": {"system": "NCI-H1944", "in_short": "as §1"}, "[14]": {"system": "NCI-H2087", "in_short": "as §1"}, "[15]": {"system": "NCI-H2228", "in_short": "as §1"}, "[16]": {"system": "NCI-H2405", "in_short": "as §1"}, "[17]": {"system": "NCI-H3122", "in_short": "as §1"}, "[18]": {"system": "NCI-H460", "in_short": "as §1"}, "[19]": {"system": "PC-3 [JPC-3]", "in_short": "as §1"}, "[20]": {"system": "RERF-LC-KJ", "in_short": "as §1"}, "[21]": {"system": "UMC-11", "in_short": "as §1"}}}
{"smiles": "NC(=O)Nc1cc(-c2cccc(F)c2)sc1C(=O)N[C@H]1CCCNC1", "note": "[AZD7762] + C[C@]1(O)C[C@@H](c2nc(-c3ccc4ccc(-c5ccccc5)nc4c3)c3c(N)nccn32)C1 [Linsitinib] (partner 1 µM)", "values": [{"measurement": "relative viability", "setting": "[1]; first compound 0.01 µM", "result": 1.08}, {"measurement": "relative viability", "setting": "[1]; first compound 0.03162 µM", "result": 0.839}, {"measurement": "relative viability", "setting": "[1]; first compound 0.1 µM", "result": 0.925}, {"measurement": "relative viability", "setting": "[1]; first compound 0.3162 µM", "result": 0.409}, {"measurement": "relative viability", "setting": "[1]; first compound 1 µM", "result": 0.278}, {"measurement": "relative viability", "setting": "[2]; first compound 0.01 µM", "result": 0.91}, {"measurement": "relative viability", "setting": "[2]; first compound 0.03162 µM", "result": 0.725}, {"measurement": "relative viability", "setting": "[2]; first compound 0.1 µM", "result": 0.984}, {"measurement": "relative viability", "setting": "[2]; first compound 0.3162 µM", "result": 0.844}, {"measurement": "relative viability", "setting": "[2]; first compound 1 µM", "result": 0.288}, {"measurement": "relative viability", "setting": "[3]; first compound 0.01 µM", "result": 0.587}, {"measurement": "relative viability", "setting": "[3]; first compound 0.03162 µM", "result": 0.666}, {"measurement": "relative viability", "setting": "[3]; first compound 0.1 µM", "result": 0.607}, {"measurement": "relative viability", "setting": "[3]; first compound 0.3162 µM", "result": 0.255}, {"measurement": "relative viability", "setting": "[3]; first compound 1 µM", "result": 0.0442}, {"measurement": "relative viability", "setting": "[4]; first compound 0.01 µM", "result": 0.624}, {"measurement": "relative viability", "setting": "[4]; first compound 0.03162 µM", "result": 0.553}, {"measurement": "relative viability", "setting": "[4]; first compound 0.1 µM", "result": 0.581}, {"measurement": "relative viability", "setting": "[4]; first compound 0.3162 µM", "result": 0.519}, {"measurement": "relative viability", "setting": "[4]; first compound 1 µM", "result": 0.345}, {"measurement": "relative viability", "setting": "[5]; first compound 0.01 µM", "result": 0.854}, {"measurement": "relative viability", "setting": "[5]; first compound 0.03162 µM", "result": 0.929}, {"measurement": "relative viability", "setting": "[5]; first compound 0.1 µM", "result": 0.787}, {"measurement": "relative viability", "setting": "[5]; first compound 0.3162 µM", "result": 0.674}, {"measurement": "relative viability", "setting": "[5]; first compound 1 µM", "result": 0.437}, {"measurement": "relative viability", "setting": "[6]; first compound 0.01 µM", "result": 1.01}, {"measurement": "relative viability", "setting": "[6]; first compound 0.03162 µM", "result": 0.966}, {"measurement": "relative viability", "setting": "[6]; first compound 0.1 µM", "result": 0.933}, {"measurement": "relative viability", "setting": "[6]; first compound 0.3162 µM", "result": 0.794}, {"measurement": "relative viability", "setting": "[6]; first compound 1 µM", "result": 0.57}, {"measurement": "relative viability", "setting": "[7]; first compound 0.01 µM", "result": 0.612}, {"measurement": "relative viability", "setting": "[7]; first compound 0.03162 µM", "result": 0.568}, {"measurement": "relative viability", "setting": "[7]; first compound 0.1 µM", "result": 0.526}, {"measurement": "relative viability", "setting": "[7]; first compound 0.3162 µM", "result": 0.432}, {"measurement": "relative viability", "setting": "[7]; first compound 1 µM", "result": 0.397}, {"measurement": "relative viability", "setting": "[8]; first compound 0.01 µM", "result": 1.16}, {"measurement": "relative viability", "setting": "[8]; first compound 0.03162 µM", "result": 1.09}, {"measurement": "relative viability", "setting": "[8]; first compound 0.1 µM", "result": 0.966}, {"measurement": "relative viability", "setting": "[8]; first compound 0.3162 µM", "result": 0.579}, {"measurement": "relative viability", "setting": "[8]; first compound 1 µM", "result": 0.481}, {"measurement": "relative viability", "setting": "[9]; first compound 0.01 µM", "result": 1.03}, {"measurement": "relative viability", "setting": "[9]; first compound 0.03162 µM", "result": 0.904}, {"measurement": "relative viability", "setting": "[9]; first compound 0.1 µM", "result": 0.902}, {"measurement": "relative viability", "setting": "[9]; first compound 0.3162 µM", "result": 0.702}, {"measurement": "relative viability", "setting": "[9]; first compound 1 µM", "result": 0.358}, {"measurement": "relative viability", "setting": "[10]; first compound 0.01 µM", "result": 0.885}, {"measurement": "relative viability", "setting": "[10]; first compound 0.03162 µM", "result": 0.887}, {"measurement": "relative viability", "setting": "[10]; first compound 0.1 µM", "result": 1.05}, {"measurement": "relative viability", "setting": "[10]; first compound 0.3162 µM", "result": 0.869}, {"measurement": "relative viability", "setting": "[10]; first compound 1 µM", "result": 0.734}, {"measurement": "relative viability", "setting": "[11]; first compound 0.01 µM", "result": 1.03}, {"measurement": "relative viability", "setting": "[11]; first compound 0.03162 µM", "result": 1.06}, {"measurement": "relative viability", "setting": "[11]; first compound 0.1 µM", "result": 1.06}, {"measurement": "relative viability", "setting": "[11]; first compound 0.3162 µM", "result": 1.03}, {"measurement": "relative viability", "setting": "[11]; first compound 1 µM", "result": 0.646}, {"measurement": "relative viability", "setting": "[12]; first compound 0.01 µM", "result": 1.05}, {"measurement": "relative viability", "setting": "[12]; first compound 0.03162 µM", "result": 0.82}, {"measurement": "relative viability", "setting": "[12]; first compound 0.1 µM", "result": 0.994}, {"measurement": "relative viability", "setting": "[12]; first compound 0.3162 µM", "result": 0.801}, {"measurement": "relative viability", "setting": "[12]; first compound 1 µM", "result": 0.358}, {"measurement": "relative viability", "setting": "[13]; first compound 0.01 µM", "result": 1.19}, {"measurement": "relative viability", "setting": "[13]; first compound 0.03162 µM", "result": 1.26}, {"measurement": "relative viability", "setting": "[13]; first compound 0.1 µM", "result": 1.35}, {"measurement": "relative viability", "setting": "[13]; first compound 0.3162 µM", "result": 1.25}, {"measurement": "relative viability", "setting": "[13]; first compound 1 µM", "result": 1.14}, {"measurement": "relative viability", "setting": "[14]; first compound 0.01 µM", "result": 0.995}, {"measurement": "relative viability", "setting": "[14]; first compound 0.03162 µM", "result": 0.986}, {"measurement": "relative viability", "setting": "[14]; first compound 0.1 µM", "result": 1.07}, {"measurement": "relative viability", "setting": "[14]; first compound 0.3162 µM", "result": 1.03}, {"measurement": "relative viability", "setting": "[14]; first compound 1 µM", "result": 1.17}, {"measurement": "relative viability", "setting": "[15]; first compound 0.01 µM", "result": 0.792}, {"measurement": "relative viability", "setting": "[15]; first compound 0.03162 µM", "result": 0.478}, {"measurement": "relative viability", "setting": "[15]; first compound 0.1 µM", "result": 0.734}, {"measurement": "relative viability", "setting": "[15]; first compound 0.3162 µM", "result": 0.289}, {"measurement": "relative viability", "setting": "[15]; first compound 1 µM", "result": 0.242}, {"measurement": "relative viability", "setting": "[16]; first compound 0.01 µM", "result": 1}, {"measurement": "relative viability", "setting": "[16]; first compound 0.03162 µM", "result": 0.929}, {"measurement": "relative viability", "setting": "[16]; first compound 0.1 µM", "result": 0.86}, {"measurement": "relative viability", "setting": "[16]; first compound 0.3162 µM", "result": 0.655}, {"measurement": "relative viability", "setting": "[16]; first compound 1 µM", "result": 0.402}, {"measurement": "relative viability", "setting": "[17]; first compound 0.01 µM", "result": 1.02}, {"measurement": "relative viability", "setting": "[17]; first compound 0.03162 µM", "result": 0.986}, {"measurement": "relative viability", "setting": "[17]; first compound 0.1 µM", "result": 1.05}, {"measurement": "relative viability", "setting": "[17]; first compound 0.3162 µM", "result": 0.868}, {"measurement": "relative viability", "setting": "[17]; first compound 1 µM", "result": 1.12}, {"measurement": "relative viability", "setting": "[18]; first compound 0.01 µM", "result": 0.975}, {"measurement": "relative viability", "setting": "[18]; first compound 0.03162 µM", "result": 0.727}, {"measurement": "relative viability", "setting": "[18]; first compound 0.1 µM", "result": 0.719}, {"measurement": "relative viability", "setting": "[18]; first compound 0.3162 µM", "result": 0.135}, {"measurement": "relative viability", "setting": "[18]; first compound 1 µM", "result": 0.0126}, {"measurement": "relative viability", "setting": "[19]; first compound 0.01 µM", "result": 0.929}, {"measurement": "relative viability", "setting": "[19]; first compound 0.03162 µM", "result": 0.966}, {"measurement": "relative viability", "setting": "[19]; first compound 0.1 µM", "result": 0.999}, {"measurement": "relative viability", "setting": "[19]; first compound 0.3162 µM", "result": 0.987}, {"measurement": "relative viability", "setting": "[19]; first compound 1 µM", "result": 0.927}, {"measurement": "relative viability", "setting": "[20]; first compound 0.01 µM", "result": 0.923}, {"measurement": "relative viability", "setting": "[20]; first compound 0.03162 µM", "result": 0.879}, {"measurement": "relative viability", "setting": "[20]; first compound 0.1 µM", "result": 0.849}, {"measurement": "relative viability", "setting": "[20]; first compound 0.3162 µM", "result": 0.908}, {"measurement": "relative viability", "setting": "[20]; first compound 1 µM", "result": 0.842}, {"measurement": "relative viability", "setting": "[21]; first compound 0.01 µM", "result": 1.03}, {"measurement": "relative viability", "setting": "[21]; first compound 0.03162 µM", "result": 0.956}, {"measurement": "relative viability", "setting": "[21]; first compound 0.1 µM", "result": 0.976}, {"measurement": "relative viability", "setting": "[21]; first compound 0.3162 µM", "result": 0.689}, {"measurement": "relative viability", "setting": "[21]; first compound 1 µM", "result": 0.551}]}
